Data reported in paper PMC7497403, “Development of Potent PfCLK3 Inhibitors Based on TCMDC-135051 as a New Class of Antimalarials” (Journal of Medicinal Chemistry, 2020).

Tests used:
[1] = test system: P. falciparum clinical field isolates from The Gambia; assay: Parasite reduction rate (PRR) assay with clinical isolates; format: cell-based; conditions: all isolates except GB0020, GB002 and GB0026; at EC50 concentration (18 nM)
Microsomal stability = format: in vitro ADME; conditions: mouse liver microsomes; 1 μM compound
Experimental: Compounds were incubated at 37 °C at a concentration of 1 μM with CD1 mouse liver microsomes (GIBCO, Thermo Fisher Scientific) in a suspension of 50 mM potassium phosphate buffer (pH 7.4) with a final protein concentration of 0.5 mg/mL. The reaction was started by the addition of excess NADPH and then quenched at several time points starting from time 0, then at 3, 6, 9, 15, and 30 min addition of acetonitrile to an aliquot of the sample. An internal standard was added to each sample before centrifugation to remove any precipitates before monitoring loss of parent compound by HPLC analysis using Shimadzu LC-20A (Shimadzu, UK). Prism (Graphpad, USA) was used to fit an exponential decay for substrate depletion and subsequently rate constant (k) from the peak area of the parent compound to the internal standard at each time point.

P. falciparum 3D7 = assay: Parasite growth inhibition (Sybr Green I) in 3D7 parasites; format: cell-based; conditions: for fold decrease in parasite growth inhibition: 3D7 parasites, relative to TCMDC-135051 (1); for EC50: Plasmodium falciparum, asexual 3D7 (chloroquine-sensitive) P. falciparum, ± SEM, n = 3, read-out: 3D7 pEC50 (converted); for 3D7 ED50: Table 2, asexual 3D7 P. falciparum
[2] = target: T1, full-length PfCLK3 recombinant protein (Plasmodium falciparum, UniProt Q8IIL5); assay: TR-FRET PfCLK3 in vitro kinase assay; format: biochemical, P. falciparum; conditions: for IC50: TR-FRET, full-length recombinant PfCLK3, ± SEM, n = 3, read-out: PfCLK3 pIC50 (converted)
T1 sequence (Q8IIL5 1-699): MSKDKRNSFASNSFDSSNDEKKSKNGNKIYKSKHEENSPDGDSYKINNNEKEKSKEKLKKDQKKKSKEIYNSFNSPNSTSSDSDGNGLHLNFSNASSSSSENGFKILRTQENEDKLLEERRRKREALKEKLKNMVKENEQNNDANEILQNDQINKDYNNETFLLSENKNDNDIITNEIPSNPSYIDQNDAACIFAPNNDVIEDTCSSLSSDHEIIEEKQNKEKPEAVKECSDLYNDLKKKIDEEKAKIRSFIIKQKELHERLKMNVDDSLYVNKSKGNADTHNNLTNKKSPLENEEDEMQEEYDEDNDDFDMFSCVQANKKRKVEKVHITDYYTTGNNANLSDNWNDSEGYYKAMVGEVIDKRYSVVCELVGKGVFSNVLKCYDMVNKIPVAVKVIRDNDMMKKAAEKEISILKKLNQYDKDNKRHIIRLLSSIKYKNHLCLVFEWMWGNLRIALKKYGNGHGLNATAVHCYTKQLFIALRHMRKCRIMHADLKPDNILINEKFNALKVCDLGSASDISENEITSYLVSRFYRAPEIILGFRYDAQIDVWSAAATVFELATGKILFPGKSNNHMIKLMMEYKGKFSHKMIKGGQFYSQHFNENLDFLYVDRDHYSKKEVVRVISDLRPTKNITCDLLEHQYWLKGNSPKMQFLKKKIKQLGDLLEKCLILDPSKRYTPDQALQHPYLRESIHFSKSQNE
Experimental: First, in a 10 μL reaction volume, 5 μL of twice the required enzyme concentration (50 nM) and 2.5 μL of four times the required substrate concentration mix containing cold ATP, and the serially diluted drugs were mixed in a black 384-plate well plate and incubated at 37 °C for 1 h. The reaction was stopped after incubation by adding the stopping/detection solution (containing 30 mM EDTA in 1× Lance detection buffer and 3 nM Europium-labeled antiphospho-specific antibody) and incubated for another hour at RT before phosphorylation signals were measured using the ClarioStar.
For each test compound, percent inhibition (response) which was calculated using the formula: [drawing 3] was plotted against the log molar concentration of compound to calculate the IC50 (potency) of each inhibitor molecule and plotted using GraphPad prism software. All experiments were carried out in triplicates, and the data presented were the standard error of the mean (SEM) of three independent experiments run in triplicates.
PfCLK3 phosphorylation of substrate results in the Europium-labeled antiphospho-specific antibody recognizing the phosphorylated site on the substrate. The Europium donor fluorophore is excited at 320 or 340 nm, and energy is transferred to the ULight acceptor dye on the substrate, which finally results in the emission of light at 665 nm. The level of ULight peptide phosphorylation correlates with the intensity of the emission. For normalization, a no kinase and a no inhibitor reaction wells were included, and all experiments were conducted in triplicates. Drug dilutions, protein concentrations, and incubation times were the same for easy comparison of results.

| SMILES | clint (in vitro intrinsic clearance) (Microsomal stability) [mL/min/g liver] | fold decrease in parasite growth inhibition (P. falciparum 3D7) [fold] | IC50 [2] [µM] | also measured |
| --- | --- | --- | --- | --- |
| CCc1nc(N)nc(N)c1-c1ccc(Cl)cc1 [pyrimethamine, reference compound] | – | – | – | reduction in parasitemia (PRR) [1]: at least 70% |
| CCN(CC)Cc1ccc(OC)c(-c2cc3c(-c4ccc(-c5nnn[nH]5)c(C(C)C)c4)ccnc3[nH]2)c1 [analogue 30, N-Ethyl-N-(3-(4-(3-isopropyl-4-(1H-tetrazol-5-yl)phenyl)-1H-pyrrolo[2,3-b]pyridin-2-yl)-4-methoxybenzyl)ethanamine] | 2.32 | – | – | – |
| CCN(CC)Cc1cccc(-c2cc3c(-c4ccc(C(=O)O)c(C(C)C)c4)ccnc3[nH]2)c1OC [analogue 27, 4-(2-(3-((Diethylamino)methyl)-2-methoxyphenyl)-1H-pyrrolo[2,3-b]pyridin-4-yl)-2-isopropylbenzoic Acid] | 1.65 | 15 | 0.02 | fold increase in in vitro kinase activity (PfCLK3) ([2]; relative to TCMDC-135051 (1)): 2 fold |
| COc1ccc(CN(C)C)cc1-c1cc2c(-c3ccc(C(=O)O)c(C(C)C)c3)ccnc2[nH]1 [analogue 8a, 4-(2-{5-[(Dimethylamino)methyl]-2-methoxyphenyl}-1H-pyrrolo[2,3-b]pyridin-4-yl)-2-(propan-2-yl)benzoic Acid] | 2.53 | 2 | 0.0316 | EC50 (P. falciparum 3D7): 0.501 µM |
| CCN(CC)Cc1ccc(OC)c(-c2cc3c(-c4ccc(C(=O)O)c(C)c4)ccnc3[nH]2)c1 [analogue 28, 4-(2-(5-((Diethylamino)methyl)-2-methoxyphenyl)-1H-pyrrolo[2,3-b]pyridin-4-yl)-2-methylbenzoic Acid] | 1.33 | 6 | – | 3D7 ED50 (P. falciparum 3D7): 1.185 µM |
| COc1ccc(CN2CCOCC2)cc1-c1cc2c(-c3ccc(C(=O)O)c(C(C)C)c3)ccnc2[nH]1 [analogue 8c, 4-(2-{2-Methoxy-5-[(morpholin-4-yl)methyl]phenyl}-1H-pyrrolo[2,3-b]pyridin-4-yl)-2-(propan-2-yl)benzoic Acid] | 1.60 | – | 0.01 | – |
| COc1ccc(CN)cc1-c1cc2c(-c3ccc(C(=O)O)c(C(C)C)c3)ccnc2[nH]1 [analogue 12, 4-{2-[5-(Aminomethyl)-2-methoxyphenyl]-1H-pyrrolo[2,3-b]pyridin-4-yl}-2-(propan-2-yl)benzoic Acid] | 2.92 | – | – | fold less potent in vitro (PfCLK3) ([2]; relative to TCMDC-135051 (1)): 2 fold |
| CCOC(=O)c1ccc(-c2ccnc3[nH]c(-c4cc(CN(CC)CC)ccc4OC)cc23)cc1C(C)C [analogue 9, Ethyl 4-(2-(5-((Diethylamino)methyl)-2-methoxyphenyl)-1H-pyrrolo[2,3-b]pyridin-4-yl)-2-isopropylbenzoate] | 16.06 | – | – | – |
| CCN(CC)Cc1ccc(OC)c(-c2cc3c(-c4ccc(C(=O)O)cc4)ccnc3[nH]2)c1 [analogue 29, 4-(2-(5-((Diethylamino)methyl)-2-methoxyphenyl)-1H-pyrrolo[2,3-b]pyridin-4-yl)benzoic Acid] | 11.01 | 16 | 0.0316 | 3D7 ED50 (P. falciparum 3D7): 3.272 µM |
| COc1ccc(CN2CCCC2)cc1-c1cc2c(-c3ccc(C(=O)O)c(C(C)C)c3)ccnc2[nH]1 [analogue 8b, 4-(2-{2-Methoxy-5-[(pyrrolidin-1-yl)methyl]phenyl}-1H-pyrrolo[2,3-b]pyridin-4-yl)-2-(propan-2-yl)benzoic Acid] | 1.94 | 2 | – | – |
| CCN(CC)Cc1ccc(O)c(-c2cc3c(-c4ccc(C(=O)O)c(C(C)C)c4)ccnc3[nH]2)c1 [analogue 19, 4-(2-(5-((Diethylamino)methyl)-2-hydroxyphenyl)-1H-pyrrolo[2,3-b]pyridin-4-yl)-2-isopropylbenzoic Acid] | 1.94 | – | 0.02 | EC50 (P. falciparum 3D7): 3.16 µM |
| CCN(CC)Cc1cccc(-c2cc3c(-c4ccc(C(=O)O)c(C(C)C)c4)ccnc3[nH]2)c1 [analogue 23, 4-(2-{3-[(Diethylamino)methyl]phenyl}-1H-pyrrolo[2,3-b]pyridin-4-yl)-2-(propan-2-yl)benzoic Acid] | 0.85 | 1.5 | – | – |
| CCN(CC)Cc1ccc(OC)c(-c2cc3c(-c4cccc(C(C)C)c4)ccnc3[nH]2)c1 [analogue 31, N-Ethyl-N-(3-(4-(3-isopropylphenyl)-1H-pyrrolo[2,3-b]pyridin-2-yl)-4-methoxybenzyl)ethanamine] | 9.54 | – | 1 | – |
| COc1ccccc1-c1cc2c(-c3ccc(C(=O)O)c(C(C)C)c3)ccnc2[nH]1 [analogue 15, 4-[2-(2-Methoxyphenyl)-1H-pyrrolo[2,3-b]pyridin-4-yl]-2-(propan-2-yl)benzoic Acid] | 2.54 | 7 | – | – |
